Pest or weed control data for seven compounds are collected here from patent publication US20110086759A1, “CHEMICAL COMPOUNDS” (SYNGENTA CROP PROTECTION, INC., priority 2007, published 2011).

Structures are written as SMILES.

Common to all, as to assay type: in vivo
Assay [1] concerns Amaranthus retoflexus (AMARE). The assay is described as follows: Pre-emergence biological efficacy, glasshouse pot test. The settings on record: Amaranthus retroflexus, 312 h. The procedure, abridged: (§1)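 Glasshouse pot test: spray on soil one day after sowing, 1000 or 250 g/ha. Conditions 24/16 °C day/night, 14 h light, 65% humidity. Plant damage scored 0–100 at 13 days.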
Assay [2] concerns Ipomea hederaceae (IPOHE). Described as above. The settings on record: Ipomoea hederacea, 312 h. The essentials:
as §1

Assay [3] deals with Alopecurus myosuroides (ALOMY). Described as above. The settings on record: 312 h. The procedure, abridged: as §1
The subject of assay [4] is Solanum nigrum (SOLNI). Described as above. The settings on record: 312 h. The essentials: as §1
Assay [5] relates to Setaria faberi (SETFA). Described as above. The settings on record: 312 h. The essentials: as §1
Assay [6] concerns Echinochloa crus-galli (ECHCG). The assay is described as above. The settings on record: 312 h. The procedure, abridged:
as §1

The subject of assay [7] is Amaranthus retoflexus (AMARE). The assay is described as follows: Post-emergence biological efficacy, glasshouse pot test. The settings on record: Amaranthus retroflexus, 312 h. The essentials: (§2)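 Pot-grown weeds were sprayed 8 days after sowing with test compound in acetone/water (50:50) with 0.5% Tween 20 at 1000 or 250 g/ha. Glasshouse at 24/16° C day/night, 14 h light, 65% humidity. Damage scored 0-100 (100 = total damage) after 13 days.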

Assay [8] relates to Ipomea hederaceae (IPOHE). The assay is described as above. The settings on record: Ipomoea hederacea, 312 h. The procedure, abridged: as §2
Assay [9] concerns Alopecurus myosuroides (ALOMY). Described as above. The settings on record: 312 h. The procedure, abridged:
as §2

Assay [10] deals with Solanum nigrum (SOLNI). The assay is described as above. The settings on record: 312 h. The essentials: as §2
For assay [11], the system named is Setaria faberi (SETFA). The assay is described as above. The settings on record: 312 h. The procedure, abridged:
as §2

Assay [12] deals with Echinochloa crus-galli (ECHCG). Described as above. The settings on record: 312 h. The essentials: as §2
The mark [13] stands for this setting: pre-emergence, rate 1,000 g/ha, evaluated after 13 days (100=total damage to plant; 0=no damage), read-out: Percentage damage caused to weed species, AMARE.
The mark [14] stands for this setting: pre-emergence, rate 1,000 g/ha, evaluated after 13 days (100=total damage to plant; 0=no damage), read-out: Percentage damage caused to weed species, IPOHE.
[15] abbreviates: pre-emergence, rate 1,000 g/ha, evaluated after 13 days (100=total damage to plant; 0=no damage), read-out: Percentage damage caused to weed species, ALOMY.
The mark [16] stands for this setting: pre-emergence, rate 1,000 g/ha, evaluated after 13 days (100=total damage to plant; 0=no damage), read-out: Percentage damage caused to weed species, SOLNI.
[17] abbreviates: pre-emergence, rate 1,000 g/ha, evaluated after 13 days (100=total damage to plant; 0=no damage), read-out: Percentage damage caused to weed species, SETFA.
The mark [18] stands for this setting: pre-emergence, rate 1,000 g/ha, evaluated after 13 days (100=total damage to plant; 0=no damage), read-out: Percentage damage caused to weed species, ECHCG.
[19] abbreviates: Rate 1,000 g/ha, post-emergence spray, evaluated after 13 days (100=total damage to plant; 0=no damage to plant), read-out: Percentage damage caused to weed species, post-emergence, AMARE.
The mark [20] stands for this setting: Rate 1,000 g/ha, post-emergence spray, evaluated after 13 days (100=total damage to plant; 0=no damage to plant), read-out: Percentage damage caused to weed species, post-emergence, IPOHE.
Where [21] appears, read: Rate 1,000 g/ha, post-emergence spray, evaluated after 13 days (100=total damage to plant; 0=no damage to plant), read-out: Percentage damage caused to weed species, post-emergence, ALOMY.
Setting [22] is: Rate 1,000 g/ha, post-emergence spray, evaluated after 13 days (100=total damage to plant; 0=no damage to plant), read-out: Percentage damage caused to weed species, post-emergence, SOLNI.
Where [23] appears, read: Rate 1,000 g/ha, post-emergence spray, evaluated after 13 days (100=total damage to plant; 0=no damage to plant), read-out: Percentage damage caused to weed species, post-emergence, SETFA.
The mark [24] stands for this setting: Rate 1,000 g/ha, post-emergence spray, evaluated after 13 days (100=total damage to plant; 0=no damage to plant), read-out: Percentage damage caused to weed species, post-emergence, ECHCG.

Consider `Cc1c(NCC2CC2)nc(C2CC2)nc1OCC(=O)NCC1CC1` [Compound 266-20, 2-cyclopropyl-4-cyclopropylmethylamino-6-cyclopropylmethylaminocarbonylmethoxy-5-methylpyrimidine], for which the pest or weed control at 1000 g/ha was 100% in [1] (setting [13]); 40% in assay [2] (setting [14]); 0% in assay [3] (setting [15]); 50% in [4] (setting [16]); 0% in assay [5] (setting [17]); 0% in assay [6] (setting [18]). For the same compound, the pest or weed control at 1000 g/ha in assay [7] (setting [19]) was found to be 90%; in [8] (setting [20]) it was 70%; in assay [9] (setting [21]), 0%; in [10] (setting [22]) it was 80%; in [11] (setting [23]) it was 0%; in assay [12] (setting [24]), 0%.
As to `COC(=O)c1nc(C2CC2)nc(N(C)[C@@H](Cc2ccccc2)C(=O)OC)c1Cl` [5-283 (S), 5-Chloro-2-cyclopropyl-6-methoxycarbonyl-4-{N-[(1S)-1-methoxycarbonyl-2-phenyl-ethyl]-N-methyl-amino}-pyrimidine], the pest or weed control at 1000 g/ha worked out at 80% in assay [1] (setting [13]); 30% in assay [2] (setting [14]); 0% in assay [3] (setting [15]); 40% in assay [4] (setting [16]); 0% in [5] (setting [17]); 0% in [6] (setting [18]). The pest or weed control at 1000 g/ha in assay [7] (setting [19]) was 100%; in assay [8] (setting [20]) it was 50%; in assay [9] (setting [21]), 10%; in [10] (setting [22]) it was 70%; in assay [11] (setting [23]), 40%; in assay [12] (setting [24]), 10%.
For the compound `CCN(c1nc(C2CC2)nc(C(=O)OC)c1Cl)C1CCCCC1` [Compound 6-35, 5-Chloro-4-(N-cyclohexyl-N-ethyl-amino)-2-cyclo-propyl-6-methoxy-carbonylpyrimidine], the pest or weed control at 1000 g/ha in [1] (setting [13]) was 100%; in assay [2] (setting [14]), 30%; in assay [3] (setting [15]), 10%; in assay [4] (setting [16]) it was 60%; in assay [5] (setting [17]), 0%; in assay [6] (setting [18]), 0%. The pest or weed control at 1000 g/ha in assay [7] (setting [19]) was determined as 70%; in assay [8] (setting [20]), 80%; in [9] (setting [21]), 0%; in assay [10] (setting [22]), 70%; in assay [11] (setting [23]), 40%; in assay [12] (setting [24]) it was 0%.
On to `COC(=O)c1nc(-c2ccc(C(F)(F)F)cc2)nc(NCc2ccco2)c1Cl` [Compound 233-48, 5-Chloro-4-(furan-2-ylmethylamino)-6-methoxycarbonyl-2-(4-trifluoromethyl-phenyl)pyrimidine], for which the pest or weed control at 1000 g/ha in assay [1] (setting [13]) was determined as 100%; in assay [2] (setting [14]), 60%; in assay [3] (setting [15]), 30%; in assay [4] (setting [16]) it was 100%; in assay [5] (setting [17]), 20%; in [6] (setting [18]), 20%. In addition, the pest or weed control at 1000 g/ha was 80% in assay [7] (setting [19]); 70% in assay [8] (setting [20]); 20% in [9] (setting [21]); 80% in assay [10] (setting [22]); 10% in assay [11] (setting [23]); 30% in [12] (setting [24]).
In the case of `COC(=O)c1nc(C2CC2)nc(N(CCC#N)Cc2ccccc2)c1Cl` [Compound 161-60, 5-Chloro-4-[N-(2-cyanoethyl)-N-phenylmethyl-amino]-2-cyclopropyl-6-methoxycarbonyl-pyrimidine], the pest or weed control at 1000 g/ha in assay [1] (setting [13]), in assay [2] (setting [14]), in assay [3] (setting [15]), in assay [4] (setting [16]), in assay [5] (setting [17]) and in assay [6] (setting [18]) was 0% each time. Besides, the pest or weed control at 1000 g/ha in assay [7] (setting [19]) is 90%; in assay [8] (setting [20]), 70%; in assay [9] (setting [21]) it was 20%; in assay [10] (setting [22]), 80%; in assay [11] (setting [23]), 50%; in assay [12] (setting [24]), 50%.
For `COC(=O)c1nc(-c2ccc(Cl)cc2OC)nc(NCc2ccco2)c1Cl` [Compound 214-48, 5-Chloro-2-(4-chloro-2-methoxyphenyl)-4-(furan-2-yl-methyl-amino)-6-methoxy-carbonylpyrimidine], the pest or weed control at 1000 g/ha is 100% in assay [1] (setting [13]); 0% in [2] (setting [14]); 20% in [3] (setting [15]); 20% in assay [4] (setting [16]); 10% in [5] (setting [17]); 0% in assay [6] (setting [18]). Further, the pest or weed control at 1000 g/ha in [7] (setting [19]) was found to be 100%; in [8] (setting [20]), 30%; in [9] (setting [21]), 30%; in assay [10] (setting [22]) it was 70%; in [11] (setting [23]) it was 10%; in [12] (setting [24]), 0%.
Take `COC(=O)c1nc(C2CC2)nc(N[C@@H](CO)c2ccccc2)c1Cl` [4-203 (R), 5-Chloro-2-cyclopropyl-4-[(1R)-2-hydroxy-1-phenyl-ethylamino]-6-methoxycarbonyl-pyrimidine]: the pest or weed control at 1000 g/ha in assay [1] (pre-emergence, 1,000 g/ha, evaluated after 13 days (100=total damage; 0=no damage), read-out: Percentage damage AMARE) was 90%; in assay [2] (pre-emergence, 1,000 g/ha, evaluated after 13 days (100=total damage; 0=no damage), read-out: Percentage damage IPOHE), 100%; in [3] (pre-emergence, 1,000 g/ha, evaluated after 13 days (100=total damage; 0=no damage), read-out: Percentage damage ALOMY), 20%; in assay [4] (pre-emergence, 1,000 g/ha, evaluated after 13 days (100=total damage; 0=no damage), read-out: Percentage damage SOLNI) it was 80%; in assay [5] (pre-emergence, 1,000 g/ha, evaluated after 13 days (100=total damage; 0=no damage), read-out: Percentage damage SETFA) it was 30%; in assay [6] (pre-emergence, 1,000 g/ha, evaluated after 13 days (100=total damage; 0=no damage), read-out: Percentage damage ECHCG), 20%. The pest or weed control at 1000 g/ha in [7] (post-emergence, 1,000 g/ha, evaluated after 13 days (100=total damage; 0=no damage), read-out: Percentage damage caused to weed species, AMARE) was 100%; in assay [8] (post-emergence, 1,000 g/ha, evaluated after 13 days (100=total damage; 0=no damage), read-out: Percentage damage caused to weed species, IPOHE), 50%; in assay [9] (post-emergence, 1,000 g/ha, evaluated after 13 days (100=total damage; 0=no damage), read-out: Percentage damage caused to weed species, ALOMY) it was 20%; in [10] (post-emergence, 1,000 g/ha, evaluated after 13 days (100=total damage; 0=no damage), read-out: Percentage damage caused to weed species, SOLNI), 80%; in assay [11] (post-emergence, 1,000 g/ha, evaluated after 13 days (100=total damage; 0=no damage), read-out: Percentage damage caused to weed species, SETFA), 40%; in assay [12] (post-emergence, 1,000 g/ha, evaluated after 13 days (100=total damage; 0=no damage), read-out: Percentage damage caused to weed species, ECHCG), 30%.
